Results as given in ChEMBL document CHEMBL6114993, “Thienopyrimidine: A promising scaffold in the development of kinase inhibitors with anticancer activities” (Bioorg Med Chem, 2025).

Key:
[1] = biological target: Epidermal growth factor receptor (Homo sapiens) (UniProt P00533); test: Inhibition of human recombinant EGFR at 10 uM relative to control
[2] = biological target: Receptor tyrosine-protein kinase erbB-2 (Homo sapiens) (UniProt P04626); test: Inhibition of human recombinant HER-2 at 10 uM relative to control
Receptor tyrosine-protein kinase erbB-2 (Homo sapiens), sequence (P04626 whole entry, the tested form may be a part): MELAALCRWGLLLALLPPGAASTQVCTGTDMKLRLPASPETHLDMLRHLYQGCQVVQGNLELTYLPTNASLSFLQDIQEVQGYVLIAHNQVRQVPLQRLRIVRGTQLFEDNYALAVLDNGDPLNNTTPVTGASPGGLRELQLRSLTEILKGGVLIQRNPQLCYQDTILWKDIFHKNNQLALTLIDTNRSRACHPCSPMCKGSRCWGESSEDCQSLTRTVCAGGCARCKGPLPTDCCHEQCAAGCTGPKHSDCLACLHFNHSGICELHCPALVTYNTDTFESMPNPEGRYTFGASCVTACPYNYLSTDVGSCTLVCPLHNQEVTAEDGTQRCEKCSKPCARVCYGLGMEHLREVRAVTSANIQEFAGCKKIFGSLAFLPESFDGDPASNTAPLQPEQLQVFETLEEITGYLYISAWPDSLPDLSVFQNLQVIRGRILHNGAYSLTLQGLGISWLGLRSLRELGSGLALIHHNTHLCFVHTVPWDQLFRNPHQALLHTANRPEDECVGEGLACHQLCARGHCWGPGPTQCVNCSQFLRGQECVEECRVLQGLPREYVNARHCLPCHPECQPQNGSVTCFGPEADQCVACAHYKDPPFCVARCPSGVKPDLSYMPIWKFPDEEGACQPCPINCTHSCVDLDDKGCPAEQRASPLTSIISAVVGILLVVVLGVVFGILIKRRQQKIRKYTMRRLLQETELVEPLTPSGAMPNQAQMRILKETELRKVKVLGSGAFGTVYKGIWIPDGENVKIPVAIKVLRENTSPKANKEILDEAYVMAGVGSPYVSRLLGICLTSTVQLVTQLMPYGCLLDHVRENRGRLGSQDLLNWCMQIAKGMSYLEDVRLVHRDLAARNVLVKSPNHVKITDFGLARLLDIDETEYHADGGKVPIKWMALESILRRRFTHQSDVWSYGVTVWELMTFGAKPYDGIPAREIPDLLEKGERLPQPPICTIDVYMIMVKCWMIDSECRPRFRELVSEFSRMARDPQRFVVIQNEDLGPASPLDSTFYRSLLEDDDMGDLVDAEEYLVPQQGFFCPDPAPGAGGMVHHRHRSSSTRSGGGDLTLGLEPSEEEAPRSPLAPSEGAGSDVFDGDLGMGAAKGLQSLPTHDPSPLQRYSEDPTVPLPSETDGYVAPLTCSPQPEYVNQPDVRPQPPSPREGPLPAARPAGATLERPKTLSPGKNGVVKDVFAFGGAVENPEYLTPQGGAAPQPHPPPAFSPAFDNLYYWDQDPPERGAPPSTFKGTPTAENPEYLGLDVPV

[3] = biological target: T1, Fas-activated serine/threonine kinase (Homo sapiens, UniProt Q14296); test: Inhibition of […] human FASTK (355 to 444 residues) extracted from Escherichia coli BL21 (DE3) by Malachite Green dye based assay
T1 sequence (Q14296 whole entry): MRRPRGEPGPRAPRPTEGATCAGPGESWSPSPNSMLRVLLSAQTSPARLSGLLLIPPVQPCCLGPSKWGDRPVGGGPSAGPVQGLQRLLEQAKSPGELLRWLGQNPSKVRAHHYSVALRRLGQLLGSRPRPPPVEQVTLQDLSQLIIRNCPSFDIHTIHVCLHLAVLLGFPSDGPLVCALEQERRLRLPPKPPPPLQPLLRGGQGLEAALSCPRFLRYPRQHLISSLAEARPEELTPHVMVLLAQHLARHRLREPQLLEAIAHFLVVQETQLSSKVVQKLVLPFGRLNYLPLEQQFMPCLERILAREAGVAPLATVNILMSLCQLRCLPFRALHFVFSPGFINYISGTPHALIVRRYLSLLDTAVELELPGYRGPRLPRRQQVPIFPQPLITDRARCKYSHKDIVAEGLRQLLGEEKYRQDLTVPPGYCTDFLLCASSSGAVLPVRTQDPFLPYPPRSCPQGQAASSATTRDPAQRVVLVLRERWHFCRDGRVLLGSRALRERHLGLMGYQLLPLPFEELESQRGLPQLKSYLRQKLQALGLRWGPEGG

MCF7 = test: Antiproliferative activity against human MCF7 cells assessed as reduction in cell viability incubated for 48 hrs by MTT assay; assay type: functional, cell-based; details: MCF7, 48 h
Ehrlich = test: Antitumor activity against mouse Ehrlich carcinoma cell implanted in Swiss albino mouse model assessed as tumour growth inhibition at 10 mg/kg, po administered consecutively for 8 days relative to control; assay type: functional; details: 192 h, time 8 day, read-out: TGI
HUVEC = test: Antiproliferative activity against HUVEC cells assessed as reduction in cell viability at 10 uM by alamar blue reagent based assay relative to control; assay type: functional; details: Homo sapiens
NCI-H522 = test: Antiproliferative activity against human NCI-H522 cells overexpressing EGFR/HER-2 assessed as inhibition of cell growth at 10 uM relative to control; assay type: functional
SK-OV-3 = test: Antiproliferative activity against human SK-OV-3 cells overexpressing EGFR/HER-2 assessed as inhibition of cell growth at 10 uM relative to control; assay type: functional
MDA-MB-468 = test: Antiproliferative activity against human MDA-MB-468 cells overexpressing EGFR/HER-2 assessed as inhibition of cell growth at 10 uM relative to control; assay type: functional
[4] = biological target: Vascular endothelial growth factor receptor 2 (Homo sapiens) (UniProt P35968); test: Inhibition of N-terminal GST-tagged human recombinant VEGFR2 extracted from Sf9 cells at 10 uM relative to control; assay type: cell-free
Vascular endothelial growth factor receptor 2 (Homo sapiens), sequence (P35968 whole entry): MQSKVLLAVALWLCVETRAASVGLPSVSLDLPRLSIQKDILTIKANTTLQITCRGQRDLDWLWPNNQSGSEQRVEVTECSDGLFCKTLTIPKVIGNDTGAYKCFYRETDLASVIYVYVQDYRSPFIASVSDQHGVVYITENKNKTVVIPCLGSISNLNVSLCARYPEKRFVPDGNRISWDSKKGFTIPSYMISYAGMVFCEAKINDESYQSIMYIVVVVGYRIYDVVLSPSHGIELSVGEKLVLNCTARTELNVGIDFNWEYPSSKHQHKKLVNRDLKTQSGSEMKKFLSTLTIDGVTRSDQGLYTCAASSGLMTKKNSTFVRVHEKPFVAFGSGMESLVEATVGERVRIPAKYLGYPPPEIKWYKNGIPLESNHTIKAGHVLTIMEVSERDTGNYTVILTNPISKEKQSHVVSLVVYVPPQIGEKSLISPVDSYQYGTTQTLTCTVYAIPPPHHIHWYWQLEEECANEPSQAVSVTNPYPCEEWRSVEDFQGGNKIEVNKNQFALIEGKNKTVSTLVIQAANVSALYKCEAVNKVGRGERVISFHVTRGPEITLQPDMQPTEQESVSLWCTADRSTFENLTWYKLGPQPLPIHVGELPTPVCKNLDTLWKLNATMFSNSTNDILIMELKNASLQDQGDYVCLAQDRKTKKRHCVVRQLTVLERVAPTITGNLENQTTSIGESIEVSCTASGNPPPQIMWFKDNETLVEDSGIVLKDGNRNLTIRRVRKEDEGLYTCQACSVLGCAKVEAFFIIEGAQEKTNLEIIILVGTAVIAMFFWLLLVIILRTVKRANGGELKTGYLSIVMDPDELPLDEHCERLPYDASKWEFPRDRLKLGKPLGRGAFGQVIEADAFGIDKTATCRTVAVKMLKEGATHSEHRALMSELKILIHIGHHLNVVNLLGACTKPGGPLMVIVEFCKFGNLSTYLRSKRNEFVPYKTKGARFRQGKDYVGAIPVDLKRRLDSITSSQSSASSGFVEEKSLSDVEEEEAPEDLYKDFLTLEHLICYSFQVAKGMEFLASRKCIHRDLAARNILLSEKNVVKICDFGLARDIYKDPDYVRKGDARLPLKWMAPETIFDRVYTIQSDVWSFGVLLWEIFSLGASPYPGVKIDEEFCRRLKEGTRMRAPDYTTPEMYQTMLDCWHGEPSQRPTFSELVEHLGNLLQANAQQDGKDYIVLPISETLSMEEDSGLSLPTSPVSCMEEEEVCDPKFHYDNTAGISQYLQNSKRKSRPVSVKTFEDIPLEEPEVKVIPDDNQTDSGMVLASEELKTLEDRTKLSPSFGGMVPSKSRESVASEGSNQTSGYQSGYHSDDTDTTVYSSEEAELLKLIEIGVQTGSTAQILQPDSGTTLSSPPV

Epidermal growth factor receptor (Homo sapiens), sequence (P00533 whole entry): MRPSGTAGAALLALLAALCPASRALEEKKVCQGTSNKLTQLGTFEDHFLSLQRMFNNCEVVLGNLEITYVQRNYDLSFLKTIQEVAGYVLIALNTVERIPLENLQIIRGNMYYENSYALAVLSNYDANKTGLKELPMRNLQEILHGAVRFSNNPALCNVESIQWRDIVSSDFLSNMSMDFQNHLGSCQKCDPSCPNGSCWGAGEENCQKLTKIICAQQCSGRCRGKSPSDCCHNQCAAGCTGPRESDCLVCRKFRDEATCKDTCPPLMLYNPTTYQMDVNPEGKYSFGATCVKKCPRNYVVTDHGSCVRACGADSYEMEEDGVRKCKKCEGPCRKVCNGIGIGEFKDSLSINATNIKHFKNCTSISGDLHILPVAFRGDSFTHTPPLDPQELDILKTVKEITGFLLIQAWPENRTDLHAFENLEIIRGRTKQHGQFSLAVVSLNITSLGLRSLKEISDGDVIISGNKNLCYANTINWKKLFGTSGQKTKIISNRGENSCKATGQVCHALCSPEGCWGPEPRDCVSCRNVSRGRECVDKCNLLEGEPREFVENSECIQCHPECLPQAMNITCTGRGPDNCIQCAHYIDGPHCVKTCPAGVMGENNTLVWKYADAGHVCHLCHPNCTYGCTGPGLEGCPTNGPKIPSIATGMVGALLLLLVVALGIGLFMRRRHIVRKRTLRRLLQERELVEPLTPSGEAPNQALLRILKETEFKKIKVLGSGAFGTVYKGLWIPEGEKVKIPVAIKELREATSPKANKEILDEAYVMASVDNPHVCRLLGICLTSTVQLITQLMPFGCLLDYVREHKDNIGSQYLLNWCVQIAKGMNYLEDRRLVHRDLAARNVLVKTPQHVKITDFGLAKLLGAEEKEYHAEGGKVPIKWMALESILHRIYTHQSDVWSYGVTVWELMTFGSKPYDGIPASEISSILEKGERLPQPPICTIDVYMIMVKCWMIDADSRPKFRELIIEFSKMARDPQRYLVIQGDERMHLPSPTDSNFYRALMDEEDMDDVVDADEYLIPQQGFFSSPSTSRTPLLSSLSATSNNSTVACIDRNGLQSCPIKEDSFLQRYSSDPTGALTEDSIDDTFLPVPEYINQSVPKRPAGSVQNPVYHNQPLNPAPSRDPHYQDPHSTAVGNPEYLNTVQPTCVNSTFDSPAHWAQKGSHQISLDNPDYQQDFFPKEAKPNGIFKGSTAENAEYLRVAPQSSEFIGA

inhibition [1] [%]	inhibition [2] [%]	SMILES	inhibition at 10 µM (HUVEC) [%]	also measured
93	84	Clc1cc(Nc2ncnc3sc4c(c23)CCCC4)ccc1OCc1ccccc1	–	–
93	84	Fc1ccc(COc2ccc(Nc3ncnc4sc5c(c34)CCCC5)cc2Cl)cc1	–	–
93	84	c1ccc(COc2ccc(Nc3ncnc4sc5c(c34)CCCC5)cc2)cc1	–	–
93	84	Fc1cccc(COc2ccc(Nc3ncnc4sc5c(c34)CCCC5)cc2)c1	–	–

The next lines start with the compound.

SMILES	inhibition [1] [%]	inhibition [2] [%]	inhibition at 10 µM (HUVEC) [%]	also measured
O=C(/C=C/c1ccccc1)c1ccc(Nc2ncnc3sc4c(c23)CCCC4)cc1	–	–	–	IC50 [3]: 0.32 µM; IC50 (MCF7): 20.2 µM
Cc1cccc(NC(=O)Nc2ccc(Oc3ncnc4sc5c(c34)CCCC5)cc2)c1	–	–	82	inhibition in vivo at 10 mg/kg (Ehrlich): 86.4%
O=C(Nc1ccccc1)Nc1ccc(Oc2ncnc3sc4c(c23)CCCC4)cc1	–	–	64.3	–
COc1ccc(/C=C/C(=O)c2ccc(Nc3ncnc4sc5c(c34)CCCC5)cc2)cc1OC	–	–	–	IC50 [3]: 0.15 µM; IC50 (MCF7): 8.2 µM
Fc1cccc(COc2ccc(Nc3ncnc4sc5c(c34)CCCC5)cc2Cl)c1	93	84	–	inhibition at 10 µM (NCI-H522): 56%; inhibition at 10 µM (SK-OV-3): 80.6%; inhibition at 10 µM (MDA-MB-468): 68.2%
COc1cccc(NC(=O)Nc2ccc(Oc3ncnc4sc5c(c34)CCCC5)cc2)c1	–	–	79.2	–
O=C(/C=C/c1ccc(Cl)cc1)c1ccc(Nc2ncnc3sc4c(c23)CCCC4)cc1	–	–	–	IC50 [3]: 0.17 µM; IC50 (MCF7): 6.52 µM
Cc1ccc(NC(=O)Nc2ccc(Oc3ncnc4sc5c(c34)CCCC5)cc2)cc1Cl	–	–	46	inhibition in vivo at 10 mg/kg (Ehrlich): 82.7%
O=C(Nc1ccc(Cl)cc1)Nc1ccc(Oc2ncnc3sc4c(c23)CCCC4)cc1	–	–	–	inhibition [4]: 46%
